Data from ChEMBL document CHEMBL5137072, “Redox-Activatable Theranostic Co-Prodrug for Precise Tumor Diagnosis and Selective Combination Chemotherapy” (J Med Chem, 2022).
Activity calls are given as the source filed them. The calls are words filed in the database; no cut-off is given here.

Legend:
[1] = system: A549; experiment: Antitumor activity at human A549 cells xenografted in BALB/c mouse assessed as reduction in tumor growth at 12 umol/kg, iv administered for 20 days and measured every 3 days for 21 days in presence of CDDO-Me; type: functional, organism-based; conditions: dose 12.0 µmol/kg, time 21.0 day
[2] = Toxicity in ICR mouse assessed as effect on ALT level at 12 umol/kg, ip measured after 12 hrs in presence of CDDO-Me; type: organism-based; conditions: in vivo, dose 12 µmol/kg
[3] = system: L02; experiment: Synergistic antiproliferative activity against human L02 cells at 2.5 to 12.5 uM measured after 72 hrs in presence of CDDO-Me by MTT assay; type: toxicity, cell-based; conditions: l02, 72 h, dose 2.5-12.5 µM
[4] = Toxicity in ICR mouse assessed as effect on AST level at 12 umol/kg, ip measured after 12 hrs in presence of CDDO-Me; type: organism-based; conditions: in vivo, dose 12 µmol/kg
[5] = system: HFL1; experiment: Synergistic antiproliferative activity against human HFL1 cells at 2.5 to 12.5 uM measured after 72 hrs in presence of CDDO-Me by MTT assay; type: toxicity, cell-based; conditions: hfl1, 72 h, dose 2.5-12.5 µM
[6] = system: A549; experiment: Induction of apoptosis in human A549 cells assessed as upregulation of Bax level at 1 to 4 uM incubated for 72 hrs by Western blot analysis; type: functional, cell-based; conditions: dose 1-4 µM
[7] = system: HepG2; experiment: Synergistic antiproliferative activity against human HepG2 cells at 2.5 to 12.5 uM measured after 72 hrs in presence of CDDO-Me by MTT assay; type: functional, cell-based; conditions: dose 2.5-12.5 µM
[8] = Drug distribution in BALB/c mouse xenografted with human A549 cells assessed as increase in fluorescence in tumor signal at 20 mg/kg, iv measured after 4 to 24 hrs post injection; type: ADME, organism-based; conditions: in vivo, time 4-24 hrs
[9] = system: A549; experiment: Induction of apoptosis in human A549 cells assessed as upregulation of Mcl-1 level at 1 to 4 uM incubated for 72 hrs by Western blot analysis; type: functional, cell-based; conditions: dose 1-4 µM
[10] = system: A549; experiment: Induction of apoptosis in human A549 cells assessed as upregulation of cleaved-PARP level at 1 to 4 uM incubated for 72 hrs by Western blot analysis; type: functional, cell-based; conditions: dose 1-4 µM
[11] = biological target: T1, Protein deacetylase HDAC6 (Homo sapiens) (UniProt Q9UBN7); experiment: Inhibition of HDAC6 in human A549 cells assessed as reduction in HDAC expression at 1 to 4 uM incubated for 72 hrs by Western blot analysis; type: cell-based; conditions: dose 1-4 µM
T1 sequence (whole entry): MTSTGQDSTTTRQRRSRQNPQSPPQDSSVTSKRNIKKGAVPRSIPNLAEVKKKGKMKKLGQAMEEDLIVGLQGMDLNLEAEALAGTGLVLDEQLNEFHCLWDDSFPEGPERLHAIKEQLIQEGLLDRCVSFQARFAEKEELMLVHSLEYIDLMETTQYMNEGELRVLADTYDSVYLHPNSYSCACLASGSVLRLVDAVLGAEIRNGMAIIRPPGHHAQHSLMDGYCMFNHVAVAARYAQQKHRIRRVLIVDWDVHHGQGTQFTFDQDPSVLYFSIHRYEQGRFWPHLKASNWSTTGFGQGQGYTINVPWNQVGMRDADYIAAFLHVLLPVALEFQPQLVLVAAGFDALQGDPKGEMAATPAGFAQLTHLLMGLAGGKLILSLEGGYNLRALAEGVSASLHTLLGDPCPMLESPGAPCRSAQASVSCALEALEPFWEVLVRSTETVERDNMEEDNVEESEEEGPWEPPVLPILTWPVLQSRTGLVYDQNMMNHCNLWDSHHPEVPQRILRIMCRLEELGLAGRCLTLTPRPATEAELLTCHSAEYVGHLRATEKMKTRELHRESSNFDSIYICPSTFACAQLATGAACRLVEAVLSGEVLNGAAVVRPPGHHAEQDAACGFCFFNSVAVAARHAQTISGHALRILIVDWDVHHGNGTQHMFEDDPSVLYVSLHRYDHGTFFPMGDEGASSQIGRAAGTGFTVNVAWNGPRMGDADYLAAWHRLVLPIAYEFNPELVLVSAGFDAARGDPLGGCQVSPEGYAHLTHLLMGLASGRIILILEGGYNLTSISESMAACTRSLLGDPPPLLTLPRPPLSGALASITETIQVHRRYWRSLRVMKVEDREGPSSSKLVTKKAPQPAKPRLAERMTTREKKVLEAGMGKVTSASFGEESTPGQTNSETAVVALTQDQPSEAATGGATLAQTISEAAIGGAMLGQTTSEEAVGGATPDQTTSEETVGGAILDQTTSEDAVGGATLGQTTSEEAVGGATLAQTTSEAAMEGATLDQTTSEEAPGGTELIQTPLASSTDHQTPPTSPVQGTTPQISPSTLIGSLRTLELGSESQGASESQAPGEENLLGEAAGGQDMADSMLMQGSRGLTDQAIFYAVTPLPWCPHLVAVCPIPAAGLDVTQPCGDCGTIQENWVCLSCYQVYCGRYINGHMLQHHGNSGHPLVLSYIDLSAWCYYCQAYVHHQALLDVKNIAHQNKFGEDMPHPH

[12] = system: A549; experiment: Synergistic antiproliferative activity against human A549 cells at 2.5 to 12.5 uM measured after 72 hrs in presence of SAHA by MTT assay; type: functional, cell-based; conditions: dose 2.5-12.5 µM
[13] = system: A549; experiment: Induction of apoptosis in human A549 cells xenografted in BALB/c mouse at 12 umol/kg, iv administered for 20 days and measured every 3 days for 21 days by H and E staining based assay; type: functional; conditions: dose 12 µmol/kg, time 21 day
[14] = system: A549; experiment: Induction of apoptosis in human A549 cells xenografted in BALB/c mouse at 12 umol/kg, iv administered for 20 days and measured every 3 days for 21 days by TUNEL assay; type: functional, organism-based; conditions: dose 12.0 µmol/kg, time 21.0 day
[15] = Stability of the compound in rat plasma assessed as prodrug release at 100 ug/ml measured for 8 to 12 hrs by HPLC analysis; type: ADME, cell-free; conditions: at 100 µg/mL, time 8-12 hrs
[16] = system: HFL1; experiment: Synergistic antiproliferative activity against human HFL1 cells at 2.5 to 12.5 uM measured after 72 hrs in presence of SAHA by MTT assay; type: toxicity, cell-based; conditions: hfl1, 72 h, dose 2.5-12.5 µM
[17] = system: A549; experiment: Antitumor activity at human A549 cells xenografted in BALB/c mouse assessed as reduction in tumor growth at 12 umol/kg, iv administered for 20 days and measured every 3 days for 21 days; type: functional, organism-based; conditions: dose 12.0 µmol/kg, time 21.0 day
[18] = Toxicity in BALB/c mouse xenografted with human A549 cells assessed as change in body weight at 12 umol/kg, iv administered for 20 days and measured every 3 days for 21 days; type: organism-based; conditions: in vivo, 504 h, dose 12 µmol/kg, time 21 day
[19] = system: A549; experiment: Induction of DNA damage in human A549 cells assessed as increase in H2AX level incubated for 72 hrs by Western blot analysis; type: functional, cell-based; conditions: dose 1-4 µM, DDE = dose-dependent effect
[20] = system: MCF7; experiment: Synergistic antiproliferative activity against human MCF7 cells at 2.5 to 12.5 uM measured after 72 hrs in presence of CDDO-Me by MTT assay; type: functional, cell-based; conditions: dose 2.5-12.5 µM
[21] = system: MCF7; experiment: Synergistic antiproliferative activity against human MCF7 cells at 2.5 to 12.5 uM measured after 72 hrs in presence of SAHA by MTT assay; type: functional, cell-based; conditions: dose 2.5-12.5 µM
[22] = system: HT-29; experiment: Synergistic antiproliferative activity against human HT-29 cells at 2.5 to 12.5 uM measured after 72 hrs in presence of CDDO-Me by MTT assay; type: functional, cell-based; conditions: dose 2.5-12.5 µM
[23] = system: HepG2; experiment: Synergistic antiproliferative activity against human HepG2 cells at 2.5 to 12.5 uM measured after 72 hrs in presence of SAHA by MTT assay; type: functional, cell-based; conditions: dose 2.5-12.5 µM
[24] = biological target: T2, Histone deacetylase (Homo sapiens) (UniProt Q13547+O15379+Q9UBN7+Q92769+Q9UQL6+Q8WUI4+Q9BY41+Q96DB2+P56524+Q9UKV0+Q969S8); experiment: Inhibition of HDAC in human A549 cells assessed as activation of Bax expression at 1 to 4 uM incubated for 72 hrs in presence of SAHA by Western blot analysis; type: cell-based; conditions: dose 1-4 µM
[25] = system: HT-29; experiment: Synergistic antiproliferative activity against human HT-29 cells at 2.5 to 12.5 uM measured after 72 hrs in presence of SAHA by MTT assay; type: functional, cell-based; conditions: dose 2.5-12.5 µM
[26] = system: A549; experiment: Induction of necrosis in human A549 cells xenografted in BALB/c mouse at 12 umol/kg, iv administered for 20 days and measured every 3 days for 21 days by H and E staining based assay; type: functional, organism-based; conditions: dose 12.0 µmol/kg, time 21.0 day
[27] = system: A549; experiment: Induction of necrosis in human A549 cells xenografted in BALB/c mouse at 12 umol/kg, iv administered for 20 days and measured every 3 days for 21 days by TUNEL assay; type: functional, organism-based; conditions: dose 12.0 µmol/kg, time 21.0 day
[28] = Toxicity in ICR mouse assessed as accumulation of lipid droplets in liver at 12 umol/kg, ip measured after 12 hrs by H and E staining based analysis; type: organism-based; conditions: in vivo, dose 12 µmol/kg
[29] = system: A549; experiment: Induction of mitochondrial membrane depolarization in human A549 cells at 15 uM incubated for 2 hrs by JC-1 staining based analysis; type: functional, cell-based
[30] = Drug localization in mitochondria of human A549 cells measured after 4 hrs by Mito Tracker Green FM based confocal laser scanning microscopy analysis; type: ADME; conditions: a549, 4 h
[31] = biological target: T2, Histone deacetylase (Homo sapiens); experiment: Inhibition of HDAC in human A549 cells assessed as activation of Bax expression at 1 to 4 uM incubated for 72 hrs in presence of CDDO-Me by Western blot analysis; type: cell-based; conditions: dose 1-4 µM
[32] = system: L02; experiment: Synergistic antiproliferative activity against human L02 cells at 2.5 to 12.5 uM measured after 72 hrs in presence of SAHA by MTT assay; type: toxicity, cell-based; conditions: l02, 72 h, dose 2.5-12.5 µM
[33] = Stability of the compound in rat plasma assessed as prodrug release at 100 ug/ml measured for 8 hrs by HPLC analysis; type: ADME, cell-free; conditions: at 100 µg/mL
[34] = Toxicity in ICR mouse assessed as effect on AST level at 12 umol/kg, ip measured after 12 hrs; type: organism-based; conditions: in vivo, dose 12 µmol/kg
[35] = system: A549; experiment: Induction of ROS accumulation in human A549 cells at 15 uM incubated for 2 hrs by DCFH2-DA staining based confocal microscopic analysis; type: functional, cell-based
[36] = Toxicity in ICR mouse assessed as effect on ALT level at 12 umol/kg, ip measured after 12 hrs; type: organism-based; conditions: in vivo, dose 12 µmol/kg
[37] = system: A549; experiment: Synergistic antiproliferative activity against human A549 cells at 2.5 to 12.5 uM measured after 72 hrs in presence of CDDO-Me by MTT assay; type: functional, cell-based; conditions: dose 2.5-12.5 µM

## O=C(CCCCCCC(=O)Nc1ccccc1)NO [VORINOSTAT]
[1]
  Activity: Active
[2]
  Activity: Toxic
[3]
  Activity: Non-Toxic
[4]
  Activity: Toxic
[5]
  Activity: Non-Toxic

## COC(=O)[C@]12CCC(C)(C)C[C@H]1[C@H]1C(=O)C=C3[C@@]4(C)C(ONC(=O)CCCCCCC(=O)Nc5ccccc5)C(C#N)=C(OCc5ccc(OC(=O)C(C)SCCCSC(C)C(=O)Oc6ccc7c(c6)OC6=C(/C=C/C8=[N+](CCCc9cn(CCOCCOCCNC(=O)CCCC[C@H]%10SC[C@H]%11NC(=O)N[C@H]%11%10)nn9)c9ccc%10ccccc%10c9C8(C)C)CCCC6=C7)cc5)C(C)(C)[C@@H]4CC[C@@]3(C)[C@]1(C)CC2.[I-] (some centres undefined)
[6]
  Activity: Active
[7]
  Activity: Active
[8]
  Drug uptake: Active
[9]
  Activity: Active
[10]
  Activity: Active
[11]
  inhibition: Active
[12]
  Activity: Active
[13]
  Activity: 53.3%
[14]
  Activity: Active
[15]
  Drug metabolism: 20%
[16]
  Activity: Non-Toxic
[17]
  Activity: Active
[18]
  Activity: Non-Toxic
[19]
  Activity: Dde
[20]
  Activity: Active
[21]
  Activity: Active
[22]
  Activity: Active
[23]
  Activity: Active
[24]
  inhibition: Active
[25]
  Activity: Active
[26]
  Activity: Active
[27]
  Activity: Active
[28]
  Activity: Non-Toxic
[3]
  Activity: Non-Toxic
[29]
  Activity: Active
[30]
  Drug uptake: Active
[31]
  inhibition: Active
[32]
  Activity: Non-Toxic
[33]
  Drug metabolism: < 10%
[34]
  Activity: Non-Toxic
[35]
  Activity: Active
[5]
  Activity: Non-Toxic
[36]
  Activity: Non-Toxic
[37]
  Activity: Active
